Experimental data as given in the NIST ThermoML archive (doi:10.1016/j.jct.2015.01.003).

Assay: excess molar enthalpy (molar enthalpy of mixing); xn = mol fraction of the nth substance listed
Conditions: 100 kPa, Liquid, Flow calorimetry

c1ccccc1 [benzene] + CCCO
Conditions | excess molar enthalpy [kcal/mol]
298.15 K, x1 = 0.0492 | 0.0253
298.15 K, x1 = 0.0993 | 0.0523
298.15 K, x1 = 0.1503 | 0.0798
298.15 K, x1 = 0.2006 | 0.106
298.15 K, x1 = 0.2499 | 0.132
298.15 K, x1 = 0.3001 | 0.156
298.15 K, x1 = 0.3493 | 0.178
298.15 K, x1 = 0.3994 | 0.198
298.15 K, x1 = 0.4505 | 0.217
298.15 K, x1 = 0.5004 | 0.231
298.15 K, x1 = 0.5491 | 0.243
298.15 K, x1 = 0.5987 | 0.251
298.15 K, x1 = 0.6492 | 0.256
298.15 K, x1 = 0.7006 | 0.255
298.15 K, x1 = 0.7507 | 0.249
298.15 K, x1 = 0.7994 | 0.237
298.15 K, x1 = 0.8489 | 0.217
298.15 K, x1 = 0.8992 | 0.184
298.15 K, x1 = 0.9504 | 0.128
313.15 K, x1 = 0.0493 | 0.0325
313.15 K, x1 = 0.0995 | 0.0662
313.15 K, x1 = 0.1506 | 0.1
313.15 K, x1 = 0.2009 | 0.133
313.15 K, x1 = 0.2503 | 0.162
313.15 K, x1 = 0.3005 | 0.191
313.15 K, x1 = 0.3498 | 0.217
313.15 K, x1 = 0.3999 | 0.24
313.15 K, x1 = 0.451 | 0.262
313.15 K, x1 = 0.5009 | 0.278
313.15 K, x1 = 0.5497 | 0.291
313.15 K, x1 = 0.5993 | 0.299
313.15 K, x1 = 0.6497 | 0.303
313.15 K, x1 = 0.701 | 0.3
313.15 K, x1 = 0.7511 | 0.291
313.15 K, x1 = 0.7997 | 0.276
313.15 K, x1 = 0.8491 | 0.25
313.15 K, x1 = 0.8994 | 0.209
313.15 K, x1 = 0.9505 | 0.14

Cc1ccccc1 [toluene] + CCCO
excess molar enthalpy [kcal/mol]
Conditions | 298.15 K | 313.15 K
x1 = 0.0503 | 0.0239 | 0.0339
x1 = 0.0998 | 0.0488 | 0.0681
x1 = 0.1497 | 0.0731 | 0.0994
x1 = 0.2 | 0.098 | –
x1 = 0.2001 | – | 0.133
x1 = 0.2506 | 0.122 | –
x1 = 0.2507 | – | 0.163
x1 = 0.2997 | 0.144 | 0.191
x1 = 0.3506 | 0.165 | –
x1 = 0.3507 | – | 0.217
x1 = 0.3997 | 0.183 | –
x1 = 0.3998 | – | 0.238
x1 = 0.4505 | 0.201 | –
x1 = 0.4506 | – | 0.258
x1 = 0.5012 | 0.214 | –
x1 = 0.5013 | – | 0.273
x1 = 0.5495 | 0.225 | 0.285
x1 = 0.5993 | 0.233 | –
x1 = 0.5995 | – | 0.293
x1 = 0.651 | 0.238 | 0.297
x1 = 0.6997 | 0.238 | –
x1 = 0.6998 | – | 0.296
x1 = 0.7501 | 0.234 | 0.288
x1 = 0.7996 | 0.223 | 0.273
x1 = 0.8506 | 0.205 | –
x1 = 0.8507 | – | 0.248
x1 = 0.9007 | – | 0.21
x1 = 0.9008 | 0.176 | –
x1 = 0.9496 | 0.126 | 0.143
